What all share (format): cell-based
The subject of one assay is SW620 cells. Description: SW620 cell proliferation assay (colorectal cancer, G12V), 5 days. The following applies: Homo sapiens, SW-620, 120 h. As to the method: SW620 Cell Proliferation Assay (Colorectal Cancer, G12V)
(§1) SW620 cells (ATCC CCL-227) are dispensed into white bottom opaque 96 well plates (Perkin Elmer cat no. 5680) at a density of 2000 cells per well in 100 μL DMEM (BioWhittaker, Cat #BE12-605F) supplemented with 10% FCS. […] Compounds (10 mM stock in DMSO) are added at logarithmic dose series using the HP Digital Dispenser D300 (Tecan), normalizing for added DMSO. For the TO time point measurement, untreated cells are analysed at the time of compound addition. Plates are incubated for 5 days, and cell viability is measured using CellTiter-Glo luminescent cell viability reagent (Promega, Cat. No G7570). Viability (stated as percent of control) is defined as relative luminescence units RLU of each well divided by the RLU of cells in DMSO controls. IC50 values were computed from relative viability values using a four parametric logistic model.

The test system of another assay is GP5d cells. Description: GP5d cell proliferation assay (colorectal cancer, G12D), 5 days. Conditions: Homo sapiens, 120 h. The protocol:
GP5d Cell Proliferation Assay (Colorectal Cancer, G12D)
as §1, with “GP5d” for “SW620”, “(ECACC 95090715)” for “(ATCC CCL-227)”, “plates” for “plates (Perkin Elmer cat no. 5680)”, “5000” for “2000”

The subject of a further assay is NCI-H358 cells. Description: NCI-H358 CTG proliferation assay (120 h) (NSCLC, G12C). The following applies: Homo sapiens. As to the method: NCI-H358 CTG Proliferation Assay (120 h) (NSCLC, G12C)
NCI-H358 cells (ATCC No. CRL-5807) are dispensed into white bottom opaque 96 well plates (Perkin Elmer cat no. 5680) at a density of 2000 cells per well in 100 μL RPMI-1640 ATCC-Formulation (Gibco #A10491)+10% FCS (fetal calf serum) (assay 1) or into black 384-well plates, flat and clear bottom (Greiner, PNr. 781091) at a density of 200 cells per well in 60 μl RPMI-1640 ATCC-Formulation (Gibco #A10491)+10% FCS (fetal calf serum) (assay 2). […] Compounds (10 mM stock in DMSO) are added at logarithmic dose series using the HP Digital Dispenser D300 (Tecan) (assay 1) or the ECHO acoustic liquid handler system (Beckman Coulter) (assay 2), normalizing for added DMSO and including DMSO controls. For the TO time point measurement, untreated cells are analyzed at the time of compound addition. Plates are incubated for 120 h, and cell viability is measured using CellTiter-Glo luminescent cell viability reagent (Promega product code G7570). Viability (stated as percent of control) is defined as relative luminescence units RLU of each well divided by the RLU of cells in DMSO controls. IC50 values are determined from viability measurements by non-linear regression using a four parameter model.

The target in the next assay is T1, KRAS(G12D) (Homo sapiens, UniProt P01116, G12D).
T1 construct: introduced immediately downstream of the initiating Methionine codon of the endogenous KRAS locus; host or cells: GP5d-HiBit-KRAS(G12D), a CRISPR knock-in at the endogenous locus
Description: HiBit degradation assay in GP5d-HiBit-KRAS(G12D) cells (18 h; DC50, Dmax). The protocol: A HiBit protein detection tag (amino acid sequence […], Seq ID No 1) was introduced immediately downstream of the initiating Methionine codon of the endogenous KRAS locus (Ensembl gene ID ENSG00000133703.7) of GP5d cells (ECACC Cat. No. 95090715) by CRISPR-based genome engineering using a KRAS(G12D) mutant donor construct encoding the HiBit tag. […] Correct modification of the KRAS locus was assessed by PCR-based genotyping and Sanger sequencing of the isolated PCR products. The resulting cell line is referred to as GP5d-HiBit-KRAS(G12D).
To assess PROTAC-mediated degradation of KRAS(G12D), GP5d-HiBit-KRAS(G12D) cells were seeded at 25000 cells per well in 100 μL Dulbecco's Modified Eagle medium (Sigma cat. no. D6429) supplemented with 10% fetal calf serum into white bottom opaque 96 well plates (Perkin Elmer cat no. 5680). Plates were incubated at 37° C., 5% CO2 in a humidified incubator over night to allow the cells to adhere. […] Plates were further incubated at 37° C. for 18 hours. Following incubation, 100 μL per well Promega Nano-Glo HiBit lytic detection reagent mix (Promega Nano-Glo HiBit Lytic Detection System #N3050), prepared according to the manufacturer's instructions in the kit, were added. To allow for adequate cell lysis, plates were incubated on an orbital shaker for 15 min and further incubated 30 min at room temperature. Upon completion of cell lysis, luminescence was measured using an Envision plate reader using the Ultrasensitive Luminescence Protocol for 96 well plates. Luminescence levels were normalized by the values obtained with DMSO-treated samples and plotted as percent of DMSO control. DC50 values were computed using a four parametric logistic model. Dmax values represent the maximal extent of degradation observed and is stated as percent of control (% Ctrl.) treatments. DC50 and Dmax are reported in Table 64 for representative compounds of the invention.
In general terms: With HiBiT, luminescence reflects the tagged protein that the partner subunit can reach.

The mark [1] stands for this setting: assay 1, read-out: H358 (assay 1) IC50.
[2] abbreviates: assay 2, read-out: H358 (assay 2) IC50.

Where two headings read alike, the source gives them in different places.

T1 sequence (P01116 1-188 isoform P01116-2 G12D): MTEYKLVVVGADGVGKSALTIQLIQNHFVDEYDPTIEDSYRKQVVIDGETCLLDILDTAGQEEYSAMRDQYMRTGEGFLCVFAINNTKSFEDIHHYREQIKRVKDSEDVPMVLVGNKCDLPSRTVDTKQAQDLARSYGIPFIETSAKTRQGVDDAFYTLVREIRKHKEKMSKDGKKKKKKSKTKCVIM

What is called IC50 is the point on the concentration scale where inhibition reaches its midpoint. What is called DC50 is the concentration at which degradation of the target reaches its halfway point. Low readings indicate a more potent degrader, high ones a less potent degrader. For the molecule `Cc1ncsc1-c1ccc(CNC(=O)[C@@H]2C[C@@H](O)CN2C(=O)C(c2cc(OCCCCN3CCCN(c4nccc(-c5noc([C@@]6(C)CCCc7sc(N)c(C#N)c76)n5)n4)[C@@H](C)C3)no2)C(C)C)cc1` (some centres unmarked) [I-3], the IC50 in the assay with SW620 cells came out at 13.1 nM; in the assay with GP5d cells it was 6.14 nM; in the assay on NCI-H358 cells (setting [1]), 66 nM; in the assay with NCI-H358 cells (setting [2]) it was 60.7 nM. Further, at KRAS(G12D), the 50% degradation concentration (DC50) came to 2.7 nM. The “Dmax 18 h” value at KRAS(G12D) turned out to be 91 % Ctrl.

`Cc1cc(CNC(=O)[C@@H]2C[C@@H](O)CN2C(=O)C(c2cc(OCCCCN3CCCN(c4nccc(-c5noc([C@@]6(C)CCCc7sc(N)c(C#N)c76)n5)n4)[C@@H](C)C3)no2)C(C)C)ccc1-c1scnc1C` (some centres unmarked) [I-10]: the IC50 worked out at 115 nM in the assay on SW620 cells, 39.3 nM with GP5d cells, 265 nM in the assay on NCI-H358 cells (setting [1]) and 203 nM with NCI-H358 cells (setting [2]). The DC50 on KRAS(G12D) was determined as 15.4 nM. At KRAS(G12D), the “Dmax 18 h” value is listed as 91 % Ctrl.

As to `Cc1ncsc1-c1ccc(CNC(=O)[C@@H]2C[C@@H](O)CN2C(=O)C(c2cc(OCCCN3CCCN(c4ccnc(-c5noc([C@@]6(C)CCCc7sc(N)c(C#N)c76)n5)n4)[C@@H](C)C3)no2)C(C)C)cc1` (some centres unmarked) [I-21], the IC50 in the assay with NCI-H358 cells (setting [2]) was found to be 81.3 nM. Further, at KRAS(G12D), the DC50 was determined as 41.1 nM and the “Dmax 18 h” value is listed as 90 % Ctrl.

Take `Cc1ncsc1-c1ccc(CNC(=O)[C@@H]2C[C@@H](O)CN2C(=O)C(c2cc(OCCN3CCCN(c4nccc(-c5noc([C@@]6(C)CCCc7sc(N)c(C#N)c76)n5)n4)[C@@H](C)C3)no2)C(C)C)cc1` (some centres unmarked) [I-2]: the results for the IC50 in the assay with SW620 cells, in the assay with GP5d cells and with NCI-H358 cells (setting [1]) were 598 nM, at least 9000 nM and 2930 nM, respectively. The molecule also displayed a DC50 on KRAS(G12D) of 263 nM. Besides, the “Dmax 18 h” value at KRAS(G12D) is reported as 84 % Ctrl.

On to `CC(C)C(C(=O)N1C[C@H](O)C[C@H]1C(=O)NCc1ccc(-n2cncn2)cc1)c1cc(OCCCCN2CCCN(c3nccc(-c4noc([C@@]5(C)CCCc6sc(N)c(C#N)c65)n4)n3)[C@@H](C)C2)no1` (some centres unmarked) [I-17], for which the IC50 in the assay on NCI-H358 cells (setting [2]) is 89.5 nM. Moreover, at KRAS(G12D), the 50% degradation concentration (DC50) stood at 3.3 nM and the “Dmax 18 h” value worked out at 93 % Ctrl.

On to `Cc1ncsc1-c1ccc([C@@H](NC(=O)[C@@H]2C[C@@H](O)CN2C(=O)[C@@H](C(C)C)n2cc(OCCCCN3CCCN(c4nccc(-c5noc([C@@]6(C)CCCc7sc(N)c(C#N)c76)n5)n4)[C@@H](C)C3)nn2)[C@H](C)O)cc1` (single isomer, unassigned) [I-40], for which the half-maximal inhibitory concentration (IC50) in the assay on NCI-H358 cells (setting [2]) amounted to 2720 nM. At KRAS(G12D), half-maximal degradation (DC50) was put at 970 nM and the “Dmax 18 h” value worked out at 61 % Ctrl.

With `Cc1ncsc1-c1ccc(CNC(=O)[C@@H]2C[C@@H](O)CN2C(=O)C(C(C)C)n2cc(CCCCCN3CCCN(c4nccc(-c5noc([C@@]6(C)CCCc7sc(N)c(C#N)c76)n5)n4)[C@@H](C)C3)nn2)cc1` (some centres unmarked) [I-34], the IC50 in the assay on SW620 cells was found to be 51.3 nM; in the assay on GP5d cells, 21.7 nM; in the assay with NCI-H358 cells (setting [1]), 160 nM; in the assay on NCI-H358 cells (setting [2]), 43.8 nM. In addition, the DC50 at KRAS(G12D) came out at 10.6 nM. The “Dmax 18 h” value at KRAS(G12D) came to 91 % Ctrl.

With `Cc1ncsc1-c1ccc(CNC(=O)[C@@H]2C[C@@H](O)CN2C(=O)C(c2cc(OCCCCCCN3CCCN(c4nccc(-c5noc([C@@]6(C)CCCc7sc(N)c(C#N)c76)n5)n4)[C@@H](C)C3)no2)C(C)C)cc1` (some centres unmarked) [I-8], the IC50 is 50.4 nM in the assay with SW620 cells, 90.2 nM with GP5d cells, 725 nM with NCI-H358 cells (setting [1]) and 136 nM in the assay with NCI-H358 cells (setting [2]). On KRAS(G12D), this molecule registered a half-maximal degradation concentration (DC50) of 11.4 nM. Moreover, at KRAS(G12D), the “Dmax 18 h” value came to 86 % Ctrl.

Consider `Cc1ncsc1-c1ccc([C@@H](NC(=O)[C@@H]2C[C@@H](O)CN2C(=O)[C@@H](C(C)C)n2cc(OCCCCN3CCCN(c4nccc(-c5noc([C@@]6(C)CCCc7sc(N)c(C#N)c76)n5)n4)[C@@H](C)C3)nn2)[C@H](O)C(C)C)cc1` (single isomer, unassigned) [I-44], for which, in the assay on NCI-H358 cells (setting [2]), the IC50 amounted to 604 nM. For the same molecule, at KRAS(G12D), it took 49.7 nM to reach half-maximal degradation (DC50) and the “Dmax 18 h” value was 88 % Ctrl.

For the molecule `Cc1ncsc1-c1ccc(CNC(=O)[C@@H]2C[C@@H](O)CN2C(=O)[C@H](c2cc(OCCCCN3CCCN(c4nccc(-c5noc([C@@]6(C)CCCc7sc(N)c(C#N)c76)n5)n4)[C@@H](C)C3)no2)C(C)C)cc1` (single isomer, unassigned) [I-26], the 50% inhibitory concentration (IC50) was determined as 265 nM in the assay on SW620 cells, 133 nM with GP5d cells, 485 nM in the assay on NCI-H358 cells (setting [1]) and 435 nM with NCI-H358 cells (setting [2]). The DC50 on KRAS(G12D) worked out at 101 nM. In addition, the “Dmax 18 h” value at KRAS(G12D) is 77 % Ctrl.

Regarding `Cc1ncsc1-c1ccc([C@H](CCOP(=O)(O)O)NC(=O)[C@@H]2C[C@@H](O)CN2C(=O)[C@H](C(C)C)n2cc(OCCCCN3CCCN(c4nccc(-c5noc([C@@]6(C)CCCc7sc(N)c(C#N)c76)n5)n4)[C@@H](C)C3)nn2)cc1` [I-39], the IC50 in the assay on NCI-H358 cells (setting [2]) worked out at 57 nM. In addition, at KRAS(G12D), the DC50 stood at 7.7 nM and the “Dmax 18 h” value is on record as 87 % Ctrl.

As to `Cc1ncsc1-c1ccc(CNC(=O)[C@@H]2C[C@@H](O)CN2C(=O)C(c2cc(OCCCCN3CCCN(c4ccnc(-c5noc([C@@]6(C)CCCc7sc(N)c(C#N)c76)n5)n4)[C@@H](C)C3)no2)C(C)C)cc1` (some centres unmarked) [I-22], the 50% inhibitory concentration (IC50) with NCI-H358 cells (setting [2]) was 97.5 nM. On KRAS(G12D), the half-maximal degradation concentration (DC50) worked out at 48.8 nM and the “Dmax 18 h” value was found to be 92 % Ctrl.

For the molecule `Cc1ncsc1-c1ccc(CNC(=O)[C@@H]2C[C@@H](O)CN2C(=O)C(c2cc(OC/C=C/CN3CCCN(c4nccc(-c5noc([C@@]6(C)CCCc7sc(N)c(C#N)c76)n5)n4)[C@@H](C)C3)no2)C(C)C)cc1` (some centres unmarked) [I-15], the IC50 in the assay with NCI-H358 cells (setting [2]) came to 122 nM. In addition, at KRAS(G12D), the DC50 is 9.8 nM and the “Dmax 18 h” value came out at 90 % Ctrl.

In the case of `Cc1ncsc1-c1ccc(CNC(=O)[C@@H]2C[C@@H](O)CN2C(=O)C(c2cc(OCCOCCN3CCCN(c4nccc(-c5noc([C@@]6(C)CCCc7sc(N)c(C#N)c76)n5)n4)[C@@H](C)C3)no2)C(C)C)cc1` (some centres unmarked) [I-14], the half-inhibitory concentration (IC50) in the assay with NCI-H358 cells (setting [2]) was 843 nM. For the same molecule, on KRAS(G12D), the 50% degradation concentration (DC50) was found to be 76 nM and the “Dmax 18 h” value is 80 % Ctrl.

As for `Cc1ncsc1-c1ccc([C@@H](NC(=O)[C@@H]2C[C@@H](O)CN2C(=O)[C@@H](C(C)C)n2cc(OCCCN3CCCN(c4nccc(-c5noc([C@@]6(C)CCCc7sc(N)c(C#N)c76)n5)n4)[C@@H](C)C3)nn2)[C@H](O)C(C)C)cc1` (single isomer, unassigned) [I-42], in the assay on NCI-H358 cells (setting [2]), the IC50 was 1920 nM. For the same molecule, at KRAS(G12D), the DC50 came out at 462 nM and the “Dmax 18 h” value is listed as 74 % Ctrl.
